Results from article PMC11836371, “Virtual fragment screening for DNA repair inhibitors in vast chemical space” (Nature Communications, 2025).
Several values for one entry are separate records, joined by “and”; a condition that tells them apart may be missing. Equal values may be shown once. Read-outs that look alike come from different tables or passages of the source.

Tests used:
[1] = Metabolic stability in human liver microsomes; type: in vitro ADME; details: pH 7.4, intrinsic clearance
Method: Human liver microsomes were purchased from BioIVT. Metabolic stability was determined in 0.5 mg/mL human liver microsomes at a compound concentration of 1 µM in 100 mM KPO4 buffer pH 7.4 in a total incubation volume of 500 µL. The reaction was initiated by the addition of 1 mM NADPH. At various incubation times, i.e., at 0, 5, 10, 20, 40, and 60 min, a sample was withdrawn from the incubation and the reaction was terminated by the addition of cold acetonitrile with warfarin as an internal standard. The amount of parent compound remaining was analyzed by liquid chromatography coupled to triple quadrupole mass spectrometry (LC-MS/MS).

A2780 cells = test: Cancer cell viability assay (resazurin), A2780; type: cell-based; parameters: key to cell viability, cytotoxicity curve (Figure3H): % viability relative to untreated control wells
Method: Three different cancer cell lines A2780 (ovarian cancer, ECACC 93112519), A549 (lung cancer, ATCC 60150896) and HCT116 (colon cancer, ATCC CCL-247), and one immortalized fibroblast cell line (BJhTERT) as control, were seeded in black/clear 384-well plates (Corning #3764), 50 µL/well, containing 11 concentrations, nano-dispensed, dose-response curves of the test compounds. A2780, HCT116, and HEK293T cell lines were authenticated with STR profiling, frozen down, and these stocks were used in experiments. The A2780 cells were cultured in RPMI 1640, the A549 and BJhTERT cells in DMEM, and the HCT116 cells in McCoys 5 A medium. All media were supplemented with 10% FBS and 1% P/S. All cell culture media, additives, and reagents were purchased from Thermo Fisher Scientific. The cell plates were incubated 72 hours in a humidified incubator at 37 °C with 5% CO2, after which resazurin (Sigma-Aldrich), 10 µL/well, was added to a final concentration of 10 µg/mL. The plates were incubated for 6 hours with resazurin followed by fluorescence readings in a Sense plate reader (Hidex), resorufin protocol (ex 544 nm/em 595 nm). The cell viability was calculated compared to untreated control wells and the EC50 values were determined in XLfit (IDBS).

Thermodynamic solubility = type: physicochemical; details: thermodynamic from solid
human OGG1 enzyme [2] = biological target: T1, human OGG1 enzyme (Homo sapiens, UniProt O15527); test: Differential scanning fluorimetry (DSF) thermal shift assay; type: binding; parameters: ∆Tm (K): unit of the concentration uncertain
T1 sequence (O15527 whole entry): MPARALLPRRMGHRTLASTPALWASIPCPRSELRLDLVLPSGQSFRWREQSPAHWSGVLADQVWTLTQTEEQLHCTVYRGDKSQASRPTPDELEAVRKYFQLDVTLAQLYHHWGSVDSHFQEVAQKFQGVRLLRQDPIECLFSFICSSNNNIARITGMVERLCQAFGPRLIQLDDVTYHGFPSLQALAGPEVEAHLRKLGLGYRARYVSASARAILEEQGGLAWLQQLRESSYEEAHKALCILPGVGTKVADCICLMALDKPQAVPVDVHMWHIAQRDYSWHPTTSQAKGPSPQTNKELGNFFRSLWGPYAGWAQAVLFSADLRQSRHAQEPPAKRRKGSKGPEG
Method: The temperature was increased from 20 °C to 85 °C with 10 readings/degree. Tm values were calculated using an excel template and fitting to the Boltzmann equation in Prism v.6.07 (GraphPad Software).

[3] = Plasma protein binding in human plasma (RED); type: in vitro ADME; details: plasma (50% plasma, 50% isotonic buffer), pH 7.4, read-out: Protein plasma binding, fu (%)
Method: Pooled human plasma was provided by Uppsala Academic Hospital and was collected from two donors (non-smoking) (citric acid). In brief, 0.2 mL of the plasma (50% plasma, 50% isotonic buffer) test solution (typically 10 µM final compound concentration) was transferred to the membrane tube in the RED insert (ThermoFisher Scientific). 0.35 ml isotonic phosphate buffer pH 7.4 was added to the other side of the membrane. The 96-well base plate was then sealed with an adhesive plastic film (Scotch Pad) to prevent evaporation. The sample was incubated with rapid rotation (>>900 rpm) on a Kisker rotational incubator at 37 °C for 4 h to achieve equilibrium. Prior to LC-MS/MS analysis the plasma and buffer samples were treated with the addition of Methanol (1:3) containing Warfarin as an internal standard to precipitate proteins. The standard curve was created using the plasma standard. The plate was then sealed, and centrifuged and the supernatant was analyzed by liquid chromatography coupled to triple quadrupole mass spectrometry (LC-MS/MS).

human OGG1 enzyme [4] = biological target: T1, human OGG1 enzyme; test: OGG1 glycosylase activity assay (enzyme inhibition, APE1-coupled fluorescence); type: biochemical; details: read-out: IC50
Method: “8” signifies 8-oxoA and “FAM” and “Dab” signify fluorescein and dabcyl (TriLink Biotech). Briefly, compounds dissolved in DMSO were dispensed using an Echo 550 (Labcyte), followed by transfer of enzyme and substrate solutions manually with a 16-channel pipette or with a Multidrop (Thermo Scientific). The plates were centrifuged, sealed and incubated at room temperature overnight (15 h) and read the following morning in an Hidex Sense plate reader (Hidex Oy) using a 485-nm filter with a bandwidth of 10 nm for excitation and a 535-nm filter with a bandwidth of 20 nm for emission.

[5] = Cell viability assay (resazurin), BJhTERT non-transformed control; type: cell-based; parameters: key to cell viability, cytotoxicity curve (Figure3H): % viability relative to untreated control wells; details: human, BJhTERT; for viability at 72 h, 5.12861e-09 M: Log conc. (M) 5.12861e-9; for viability at 72 h, 1.51356e-08 M: Log conc. (M) 1.51356e-8; for viability at 72 h, 4.57088e-08 M: Log conc. (M) 4.57088e-8; for viability at 72 h, 1.38038e-07 M: Log conc. (M) 1.38038e-7; for viability at 72 h, 4.0738e-07 M: Log conc. (M) 4.0738e-7; for viability at 72 h, 1.23027e-06 M: Log conc. (M) 1.23027e-6; for viability at 72 h, 3.31131e-05 M: Log conc. (M) 3.31131e-5; for viability at 72 h, 0.0001 M: Log conc. (M) 0.0001
Method: (§1) A2780, HCT116, and HEK293T cell lines were authenticated with STR profiling, frozen down, and these stocks were used in experiments. […] All media were supplemented with 10% FBS and 1% P/S. All cell culture media, additives, and reagents were purchased from Thermo Fisher Scientific. The cell plates were incubated 72 hours in a humidified incubator at 37 °C with 5% CO2, after which resazurin (Sigma-Aldrich), 10 µL/well, was added to a final concentration of 10 µg/mL. […] The cell viability was calculated compared to untreated control wells and the EC50 values were determined in XLfit (IDBS).

BJhTERT cells = test: as above; type: cell-based; parameters: key to cell viability, cytotoxicity curve (Figure3H): % viability relative to untreated control wells
Method: as §1

[6] = A2780, Log conc. (M) 1.69824e-9
[7] = A2780, Log conc. (M) 5.12861e-9
[8] = A2780, Log conc. (M) 1.51356e-8
[9] = A2780, Log conc. (M) 4.57088e-8
[10] = A2780, Log conc. (M) 1.38038e-7
[11] = A2780, Log conc. (M) 1.23027e-6
[12] = A2780, Log conc. (M) 3.71535e-6
[13] = A2780, Log conc. (M) 1.12202e-5
[14] = A2780, Log conc. (M) 3.31131e-5
[15] = BJhTERT immortalized fibroblast cells, read-out: cell viability, cytotoxicity curve (Figure3H)
[16] = BJhTERT, Log conc. (M) 1.69824e-9
[17] = BJhTERT, Log conc. (M) 5.12861e-9
[18] = BJhTERT, Log conc. (M) 1.51356e-8
[19] = BJhTERT, Log conc. (M) 4.57088e-8
[20] = BJhTERT, Log conc. (M) 1.38038e-7
[21] = BJhTERT, Log conc. (M) 4.0738e-7
[22] = BJhTERT, Log conc. (M) 1.23027e-6
[23] = BJhTERT, Log conc. (M) 3.71535e-6
[24] = BJhTERT, Log conc. (M) 1.12202e-5
[25] = BJhTERT, Log conc. (M) 3.31131e-5
[26] = read-out: cell viability, cytotoxicity curve (Figure3H)

Structure (SMILES)	cell viability, cytotoxicity curve (Figure3H) (A2780 cells; [6])	cell viability, cytotoxicity curve (Figure3H) (A2780 cells; [7])	cell viability, cytotoxicity curve (Figure3H) (A2780 cells; [8])	cell viability, cytotoxicity curve (Figure3H) (A2780 cells; [9])	cell viability, cytotoxicity curve (Figure3H) (A2780 cells; [10])	cell viability, cytotoxicity curve (Figure3H) (A2780 cells; A2780, Log conc. (M) 4.0738e-7)	cell viability, cytotoxicity curve (Figure3H) (A2780 cells; [11])	cell viability, cytotoxicity curve (Figure3H) (A2780 cells; [12])	cell viability, cytotoxicity curve (Figure3H) (A2780 cells; [13])	cell viability, cytotoxicity curve (Figure3H) (A2780 cells; [14])	cell viability, cytotoxicity curve (Figure3H) (A2780 cells; A2780, Log conc. (M) 0.0001)	cell viability, cytotoxicity curve (Figure3H) (BJhTERT cells; [16])	cell viability, cytotoxicity curve (Figure3H) (BJhTERT cells; [17])	cell viability, cytotoxicity curve (Figure3H) (BJhTERT cells; [18])	cell viability, cytotoxicity curve (Figure3H) (BJhTERT cells; [19])	cell viability, cytotoxicity curve (Figure3H) (BJhTERT cells; [20])	cell viability, cytotoxicity curve (Figure3H) (BJhTERT cells; [21])	cell viability, cytotoxicity curve (Figure3H) (BJhTERT cells; [22])	cell viability, cytotoxicity curve (Figure3H) (BJhTERT cells; [23])	cell viability, cytotoxicity curve (Figure3H) (BJhTERT cells; [24])	also measured
O=C(Nc1ccc(I)cc1)N1CCC(n2c(=O)[nH]c3c(Br)cccc32)CC1 [TH5487, reference compound]	121.27 and 94.15	114.3 and 105.95	105.54 and 93.28	111.22 and 83.28	102.55 and 80.89	93.7 and 80.77	109.2 and 106.39	104.11 and 96.04	67.93 and 61.64	4.85 and 2.91	1.49 and 1.08	92.09	85.03	85.22	94.5	96.92	95.59	90.96	95.28 and 121.4	71.74 and 94.42	microsomal CLint at 1 µM [1]: 4.6 µL/min/mg; solubility thermodynamic (Thermodynamic solubility): < 1 µM; ∆Tm (K) (human OGG1 enzyme [2]; 495 µM): 4.3 K; ∆Tm (K) (human OGG1 enzyme [2]; 495 (unit uncertain) as printed in sheet footnote): 4.3 K; ΔTm (human OGG1 enzyme [2]; concentration not given): 4.3 K; fraction unbound at 4 h, 10 µM [3]: 0.001; IC50 (human OGG1 enzyme [4]): 0.34 µM; viability at 72 h, 1.69824e-09 M ([5]; BJhTERT immortalized fibroblast cells, Log conc. (M) 1.69824e-9, read-out: cell viability, cytotoxicity curve (Figure3H)): 74.4%; viability at 72 h, 5.12861e-09 M [5, 15]: 72.6%; viability at 72 h, 1.51356e-08 M [5, 15]: 78%; viability at 72 h, 4.57088e-08 M [5, 15]: 84%; viability at 72 h, 1.38038e-07 M [5, 15]: 81.8%; viability at 72 h, 4.0738e-07 M [5, 15]: 80.5%; viability at 72 h, 1.23027e-06 M [5, 15]: 81.8%; viability at 72 h, 3.31131e-05 M [5, 15]: 47%; viability at 72 h, 0.0001 M [5, 15]: 5.37%; cell viability, cytotoxicity curve (Figure3H) (BJhTERT cells; [25]): 58.03; cell viability, cytotoxicity curve (Figure3H) (BJhTERT cells; BJhTERT, Log conc. (M) 0.0001): 5.96
Nc1nn(-c2ccc(CC(=O)Nc3noc4c3CCCC4)cc2)c2ccccc12 [compound 11]	91.8 and 117.36	99.13 and 112.7	105.26 and 125.33	93.79 and 108.52	82.27 and 122.21	73.45 and 78.71	82.77 and 87.65	59.52 and 70.03	22.19 and 22.95	6.15 and 7.44	1.69	80.73 and 114.45	111.95	93.48	99.27	112.5	95.56	91.5	96.04	108.1	percentage cell viability (A2780 cells; A2780, 100 μM, two independent experiments, 100 µM): 1.69%; viability at 100 µM (A2780 cells; Homo sapiens, A2780, A2780, 100 μM, two independent experiments, read-out: percentage cell viability): 1.43%; EC50 (A2780 cells; Homo sapiens, A2780 cancer cells, 72 h, read-out: EC50 (loss of viability)): 5.4 µM; viability at 72 h, 100 µM ([5]; 100 μM, two independent experiments, read-out: percentage cell viability): 38.2%; viability at 72 h, 5.12861e-09 M [5, 26]: 94.3%; viability at 72 h, 1.51356e-08 M [5, 26]: 81.4%; viability at 72 h, 4.57088e-08 M [5, 26]: 92%; viability at 72 h, 1.38038e-07 M [5, 26]: 101%; viability at 72 h, 4.0738e-07 M [5, 26]: 79.8%; viability at 72 h, 1.23027e-06 M [5, 26]: 87.1%; viability at 72 h, 3.71535e-06 M ([5]; Log conc. (M) 3.71535e-6, read-out: cell viability, cytotoxicity curve (Figure3H)): 84%; viability at 72 h, 1.12202e-05 M ([5]; Log conc. (M) 1.12202e-5, read-out: cell viability, cytotoxicity curve (Figure3H)): 89.3%; viability at 72 h, 3.31131e-05 M [5, 26]: 71%; viability at 72 h, 0.0001 M [5, 26]: 38.2%; percentage cell viability (BJhTERT cells; BJhTERT, 100 μM, two independent experiments): 40.28%; cell viability, cytotoxicity curve (Figure3H) (BJhTERT cells; [25]): 71.45; cell viability, cytotoxicity curve (Figure3H) (BJhTERT cells; BJhTERT, Log conc. (M) 0.0001): 40.28; EC50 (BJhTERT cells; non-transformed cells (BJhTERT), 72 h, read-out: EC50 (loss of viability)): > 70 µM
